Experiment [1] has as its system gli-luciferase activity (Hh pathway) in TMHh12 cells. Description: "IC50 shift" gli-luciferase reporter assay in TMHh12 cells with a small molecule Smo agonist. The class given is cell-based, mouse. As to the method: TM3 cells (mouse) transfected with a new proprietary reporter construct (pTA-8xGli-Luc). The pTA-8xGli-Luc reporter produces approx. 4 fold more luciferase activity than classical 8xGli-LUC. A highly responsive stable clone has been selected (TMHh12) with >10-fold signal/noise ratio and <10% CV in 384 well format.
“IC50 shift” assays in TMHh12 cells. IC50 for antagonism of gli-luciferase activity was tested in the presence of increasing concentrations of a small molecule agonist which binds to Smo with 1 nM affinity and activates the Hh pathway.
Table 1 lists the IC50 of antagonists determined in the presence of different (1 nM and 25 nM) concentrations of a small agonist of Smoothened.

For another experiment, the target named is Smoothened (Homo sapiens, UniProt Q99835). Description: Smo binding assay, displacement of a small molecule agonist of Smoothened, filter binding format. From the text:
A Smo binding assay was developed using radio-labeled smoothened agonist for compound competition.
Table 1, infra; lists the IC50 for displacement of a small molecule agonist of Smoothened determined in a filter binding format.

Setting [2] is: Mus musculus, TMHh12, TMHh12 cells, 1 nM small molecule Smo agonist, read-out: Gli_luc (1 nM Smo agonist) IC50.
[3] abbreviates: Mus musculus, TMHh12, TMHh12 cells, 25 nM small molecule Smo agonist, read-out: Gli_luc (25 nM Smo agonist) IC50.

pIC50: −log10 of the molar value. Where two headings read alike, the source gives them in different places.

Sequence of Smoothened (Q99835 28-787): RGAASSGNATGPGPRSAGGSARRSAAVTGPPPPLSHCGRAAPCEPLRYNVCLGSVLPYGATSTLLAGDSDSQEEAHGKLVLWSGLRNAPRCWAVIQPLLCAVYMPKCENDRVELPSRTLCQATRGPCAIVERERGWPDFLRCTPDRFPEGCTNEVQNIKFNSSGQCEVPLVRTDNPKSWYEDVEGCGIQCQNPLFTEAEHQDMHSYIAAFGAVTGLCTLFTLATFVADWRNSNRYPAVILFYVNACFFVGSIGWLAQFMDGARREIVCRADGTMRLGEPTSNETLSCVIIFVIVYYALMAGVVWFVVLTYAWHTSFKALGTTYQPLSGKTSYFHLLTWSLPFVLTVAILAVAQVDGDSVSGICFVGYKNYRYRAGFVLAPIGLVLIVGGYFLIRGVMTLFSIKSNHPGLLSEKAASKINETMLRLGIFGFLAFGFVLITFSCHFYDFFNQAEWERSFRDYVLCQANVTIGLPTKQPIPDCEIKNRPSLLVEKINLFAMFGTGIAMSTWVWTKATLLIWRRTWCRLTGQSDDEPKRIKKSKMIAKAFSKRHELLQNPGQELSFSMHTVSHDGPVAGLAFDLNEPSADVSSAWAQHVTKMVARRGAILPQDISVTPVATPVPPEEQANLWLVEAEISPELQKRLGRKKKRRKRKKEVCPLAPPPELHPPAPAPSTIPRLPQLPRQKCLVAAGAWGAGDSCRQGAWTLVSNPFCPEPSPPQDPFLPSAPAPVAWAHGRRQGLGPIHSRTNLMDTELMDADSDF

Broadly, the pIC50 is −log10 of the IC50, conventionally taken in molar units. On to `O=C(Nc1ccc2c(c1)CC(NS(=O)(=O)NC1CCCCC1)C2)c1ccccc1-c1ccc(C(F)(F)F)cc1` (stereo not shown) [Example 87], for which the values for the pIC50 in experiment [1] (setting [2]) and in experiment [1] (setting [3]) were 5.68 and 5.59, respectively.
Regarding `Cc1cccc(C(=O)Nc2ccc3c(c2)CC(NCc2ccoc2)C3)c1-c1ccc(C(F)(F)F)cc1` (stereo not shown) [Example 63], the pIC50 was 6.16 in experiment [1] (setting [2]), 4.86 in experiment [1] (setting [3]) and 6.31 on Smoothened.
Turning to `Cc1cccc(C(=O)Nc2ccc3c(c2)C[C@H](NC(=O)c2ccno2)C3)c1-c1ccc(C(F)(F)F)cc1` [Example 80], in experiment [1] (setting [2]), the negative logarithm of the IC50 (pIC50) was 5.49.
Take `CCOC(=O)N[C@H]1Cc2ccc(NC(=O)c3cccc(C)c3-c3ccc(C(F)(F)F)cc3)cc2C1` [Example 82]: the results for the negative-log IC50 (pIC50) in experiment [1] (setting [2]) and in experiment [1] (setting [3]) were 5.82 and 5.04, respectively.
For the compound `Cc1cccc(C(=O)Nc2ccc3c(c2)CC(NCc2cccs2)C3)c1-c1ccc(C(F)(F)F)cc1` (stereo not shown) [Example 52], the pIC50 in experiment [1] (setting [2]) was 7.40; in experiment [1] (setting [3]), 6.22.
With `Cc1cccc(C(=O)Nc2ccc3c(c2)CCC(NS(C)(=O)=O)CC3)c1-c1ccc(C(F)(F)F)cc1` (stereo not shown) [Example 103], the pIC50 is 5.32 in experiment [1] (setting [2]), 4.99 in experiment [1] (setting [3]) and 5.49 on Smoothened.
Regarding `Cc1cccc(C(=O)Nc2ccc3c(c2)C[C@@H](N(C)Cc2ccccn2)C3)c1-c1ccc(C(F)(F)F)cc1` [Example 38], the negative-log IC50 (pIC50) is 5.76 in experiment [1] (setting [2]), 4.88 in experiment [1] (setting [3]) and 5.20 on Smoothened.
Consider `O=C(Nc1ccc2c(c1)CC(NS(=O)(=O)c1cccs1)C2)c1c(F)cccc1-c1ccc(C(F)(F)F)cc1` (stereo not shown) [Example 97], for which the negative logarithm of the IC50 (pIC50) in experiment [1] (setting [2]) was 5.87.
Consider `O=C(COc1ccccc1)NC1Cc2ccc(NC(=O)c3ccccc3-c3ccc(C(F)(F)F)cc3)cc2C1` (stereo not shown) [Example 78], for which the negative logarithm of the IC50 (pIC50) in experiment [1] (setting [2]) was 5.72.
For the compound `O=C(Nc1ccc2c(c1)CC(NCc1ccccn1)C2)c1cccc(C(F)(F)F)c1-c1ccc(C(F)(F)F)cc1` (stereo not shown) [Example 47], the pIC50 was 5.80 in experiment [1] (TMHh12 cells, 1 nM small molecule Smo agonist, read-out: Gli_luc (1 nM Smo agonist) IC50) and 5.22 in experiment [1] (TMHh12 cells, 25 nM small molecule Smo agonist, read-out: Gli_luc (25 nM Smo agonist) IC50).
With `Cc1cccc(C(=O)Nc2ccc3c(c2)C[C@@H](NS(=O)(=O)c2ccccn2)C3)c1-c1ccc(C(F)(F)F)cc1` [Example 101], the pIC50 in experiment [1] (setting [2]) is 6.04; in experiment [1] (setting [3]), 4.85.
As to `O=C(Nc1ccc2c(c1)CCC2NCc1cccs1)c1ccccc1-c1ccc(C(F)(F)F)cc1` (stereo not shown) [Example 39], the pIC50 was 6.16 in experiment [1] (setting [2]) and 5.43 in experiment [1] (setting [3]).
For `Cc1cccc(C(=O)Nc2ccc3c(c2)CC(NS(=O)(=O)c2ccc(Cl)cc2)C3)c1-c1ccc(C(F)(F)F)cc1` (stereo not shown) [Example 98], in that order: 6.49 and 4.61.
For `Cc1cccc(C(=O)Nc2ccc3c(c2)C[C@@H](NCC2CCOC2)C3)c1-c1ccc(C(F)(F)F)cc1` (stereo partly shown) [Example 33], in that order: 5.34 and 4.78.
Turning to `CCOC(=O)NC1Cc2ccc(NC(=O)c3ccccc3-c3ccc(C(F)(F)F)cc3)cc2C1` (stereo not shown) [Example 81], the negative-log IC50 (pIC50) in experiment [1] (setting [2]) was 5.88.
Consider `Cc1nc(CN[C@H]2Cc3ccc(NC(=O)c4cccc(C)c4-c4ccc(C(F)(F)F)cc4)cc3C2)cs1` [Example 9], for which the results for the negative-log IC50 (pIC50) in experiment [1] (setting [2]) and in experiment [1] (setting [3]) were 7.41 and 6.06, respectively.
For `O=C(Nc1ccc2c(c1)CC(NS(=O)(=O)c1cccs1)C2)c1cccc(F)c1-c1ccc(C(F)(F)F)cc1` (stereo not shown) [Example 91], in that order: 7.23 and 4.79.
As for `Cc1cccc(C(=O)Nc2ccc3c(c2)CC(NS(=O)(=O)c2cccs2)C3)c1-c1ccc(F)cc1` (stereo not shown) [Example 94], in experiment [1] (setting [2]), the negative-log IC50 (pIC50) is 5.18.
Take `Cc1cccc(C(=O)Nc2ccc3c(c2)CC(NS(=O)(=O)c2ccc(Cl)s2)C3)c1-c1ccc(C(F)(F)F)cc1` (stereo not shown) [Example 85]: the negative-log IC50 (pIC50) at Smoothened is 7.92.
For the compound `Cc1cccc(C(=O)Nc2ccc3c(c2)C[C@H](NCc2ccccc2)C3)c1-c1ccc(C(F)(F)F)cc1` [Example 27], the results for the negative-log IC50 (pIC50) in experiment [1] (setting [2]) and in experiment [1] (setting [3]) were 7.92 and 6.22, respectively.
The compound `Cc1cc(C)c(-c2ccc(C(F)(F)F)cc2)c(C(=O)Nc2ccc3c(c2)CC(NCc2ccsc2)C3)c1` (stereo not shown) [Example 35] gave a negative-log IC50 (pIC50) at Smoothened of 6.68.
Consider `O=C(Nc1ccc2c(c1)C[C@@H](NCc1ccccn1)C2)c1cccc(C(F)(F)F)c1-c1ccc(C(F)(F)F)cc1` [Example 46], for which the figures for the negative-log IC50 (pIC50) in experiment [1] (setting [2]) and in experiment [1] (setting [3]) were 6.08 and 5.41, respectively.
Regarding `Cc1cccc(C(=O)Nc2ccc3c(c2)CC(NCc2ccccc2)C3)c1-c1ccc(C(F)(F)F)cc1` (stereo not shown) [Example 55], the pIC50 is 7.04 in experiment [1] (setting [2]) and 6.00 in experiment [1] (setting [3]).
As to `Cc1cccc(C(=O)Nc2ccc3c(c2)C[C@@H](NCc2ncc[nH]2)C3)c1-c1ccc(C(F)(F)F)cc1` [Example 17], the results for the negative logarithm of the IC50 (pIC50) in experiment [1] (setting [2]) and in experiment [1] (setting [3]) were 5.86 and 4.81, respectively.
Consider `O=C(Nc1ccc2c(c1)C[C@H](NS(=O)(=O)c1ccccc1)C2)c1ccccc1-c1ccc(C(F)(F)F)cc1` [Example 89], for which, in experiment [1] (setting [2]), the pIC50 was 6.69.
`Cc1cccc(C(=O)Nc2ccc3c(c2)CC(NC(=O)c2ccccc2)C3)c1-c1ccc(C(F)(F)F)cc1` (stereo not shown) [Example 76]: the negative-log IC50 (pIC50) in experiment [1] (setting [2]) was 6.11; in experiment [1] (setting [3]), 5.90.
In the case of `Cc1cccc(C(=O)Nc2ccc3c(c2)CC(NS(=O)(=O)c2cccs2)C3)c1-c1ccc(C(F)(F)F)cc1` (stereo not shown) [Example 95], the pIC50 in experiment [1] (setting [2]) was 5.85.
On the same count and under the same terms, the same measure for `CCCS(=O)(=O)NC1Cc2ccc(NC(=O)c3cccc(C)c3-c3ccc(C(F)(F)F)cc3)cc2C1` (stereo not shown) [Example 93]: 5.47; for `COC(=O)C1(CNC2Cc3ccc(NC(=O)c4ccccc4-c4ccc(C(F)(F)F)cc4)cc3C2)CCCC1` (stereo not shown) [Example 42]: 5.59; for `COc1cccc(C(=O)Nc2ccc3c(c2)CC(NC(=O)c2ccccc2)C3)c1-c1ccc(C(F)(F)F)cc1` (stereo not shown) [Example 79]: 5.88.
`CCCCS(=O)(=O)NC1Cc2ccc(NC(=O)c3cccc(C)c3-c3ccc(C(F)(F)F)cc3)cc2C1` (stereo not shown) [Example 86] had a negative-log IC50 (pIC50) at Smoothened of 6.58.
Consider `O=C(Nc1ccc2c(c1)CC(NS(=O)(=O)c1cccs1)C2)c1ccc(F)cc1-c1ccc(C(F)(F)F)cc1` (stereo not shown) [Example 90], for which the negative logarithm of the IC50 (pIC50) in experiment [1] (setting [2]) is 5.26.
Turning to `CCOC(=O)NC1Cc2ccc(NC(=O)c3cccc(OC)c3-c3ccc(C(F)(F)F)cc3)cc2C1` (stereo not shown) [Example 83], the figures for the pIC50 in experiment [1] (setting [2]) and in experiment [1] (setting [3]) were 6.15 and 5.01, respectively.
For `CN(C)CC(=O)NC1Cc2ccc(NC(=O)c3ccccc3-c3ccc(C(F)(F)F)cc3)cc2C1` (stereo not shown) [Example 77], in that order: 5.85 and 4.91.
For `O=C(Nc1ccc2c(c1)CC(NCc1ccccn1)C2)c1cccc(C(F)(F)F)c1-c1ccc(C(F)(F)F)cc1` (stereo not shown) [Example 37], in that order: 5.53 and 4.96.
For `O=C(Nc1ccc2c(c1)CC(NS(=O)(=O)c1ccc(F)cc1)C2)c1ccccc1-c1ccc(C(F)(F)F)cc1` (stereo not shown) [Example 99], the negative-log IC50 (pIC50) in experiment [1] (setting [2]) is 5.98.
As to `Cc1cccc(C(=O)Nc2ccc3c(c2)C[C@@H](NCc2cncn2C)C3)c1-c1ccc(C(F)(F)F)cc1` [Example 16], the pIC50 was 6.23 in experiment [1] (setting [2]) and 5.43 in experiment [1] (setting [3]).
As for `Cc1cccc(C(=O)Nc2ccc3c(c2)C[C@@H](NCc2nccn2C)C3)c1-c1ccc(C(F)(F)F)cc1` [Example 18], the results for the negative-log IC50 (pIC50) in experiment [1] (setting [2]) and in experiment [1] (setting [3]) were 7.41 and 6.06, respectively.
In the case of `O=C(Nc1ccc2c(c1)CC(NS(=O)(=O)c1ccccc1)C2)c1ccccc1-c1ccc(Cl)cc1` (stereo not shown) [Example 96], in experiment [1] (setting [2]), the pIC50 is 5.83.
With `Cc1cccc(C(=O)Nc2ccc3c(c2)CC(NCc2nccs2)C3)c1-c1ccc(C(F)(F)F)cc1` (stereo not shown) [Example 72], the negative logarithm of the IC50 (pIC50) in experiment [1] (setting [2]) is 7.42; in experiment [1] (setting [3]) it was 6.18.

These data come from patent publication US20090306149A1, “USE OF BIARYLCARBOXAMIES IN THE TREATMENT OF HEDGEHOG PATHWAY-RELATED DISORDERS” (priority 2006, published 2009).
